pIC50, pKi: −log10 of the molar value.
Experiments:
[1] = DRUGMATRIX: Glutamate, Kainate radioligand binding (ligand: [3H] Kainic acid); assay type: cell membranes, Rattus norvegicus, Wistar, Brain, Membrane; details: Not Active = under 50% inhibition at 10 µM
[2] = biological target: T1, Muscarinic acetylcholine receptor M4 (Homo sapiens, UniProt P08173); assay type: cell membranes, CHO-K1, Membrane; details: for pIC50: read-out: IC50; for pKi: read-out: Ki; for all read-outs here: in other assays of this panel Not Active means under 50% inhibition at 10 µM
T1 sequence (P08173 whole entry): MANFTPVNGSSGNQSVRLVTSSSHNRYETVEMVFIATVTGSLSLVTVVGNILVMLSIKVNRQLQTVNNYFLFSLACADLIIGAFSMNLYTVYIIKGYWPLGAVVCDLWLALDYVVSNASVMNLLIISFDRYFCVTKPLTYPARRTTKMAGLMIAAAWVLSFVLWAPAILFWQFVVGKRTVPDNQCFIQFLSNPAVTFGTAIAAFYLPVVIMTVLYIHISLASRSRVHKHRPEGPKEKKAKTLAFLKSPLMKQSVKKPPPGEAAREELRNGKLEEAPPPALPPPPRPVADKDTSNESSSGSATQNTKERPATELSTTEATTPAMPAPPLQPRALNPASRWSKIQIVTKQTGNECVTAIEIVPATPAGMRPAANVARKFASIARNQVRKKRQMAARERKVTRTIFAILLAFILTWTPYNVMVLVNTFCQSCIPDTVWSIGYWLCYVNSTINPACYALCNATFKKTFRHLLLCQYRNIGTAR

[3] = biological target: Kappa-type opioid receptor (Homo sapiens, UniProt P41145); test: DRUGMATRIX: Opiate kappa (OP2, KOP) radioligand binding (ligand: [3H] Diprenorphine); assay type: cell membranes, HEK293, Membrane; details: Not Active = under 50% inhibition at 10 µM; for IC50: hek293
[4] = DRUGMATRIX: Phorbol Ester radioligand binding (ligand: [3H] PDBu); assay type: cell membranes, Mus musculus, ICR, Brain, Membrane; details: Not Active = under 50% inhibition at 10 µM
[5] = biological target: Tyrosine-protein kinase Fyn (Homo sapiens, UniProt P06241); test: biochemical; assay type: cell-based, Insect cells; details: for pIC50: read-out: IC50;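 for all read-outs here: enzymatic inhibition of Fyn kinase activity measured with Poly(Glu:Tyr) as the phosphorylation substrate; in other assays of this panel Not Active means under 50% inhibition at 10 µM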
[6] = biological target: Tyrosine-protein kinase Lck (Homo sapiens, UniProt P06239); test: DRUGMATRIX: Protein Tyrosine Kinase, LCK enzyme inhibition (substrate: Poly(Glu:Tyr)); assay type: cell-based, Insect cells; details: Not Active = under 50% inhibition at 10 µM
Tyrosine-protein kinase Lck, sequence (P06239 whole entry): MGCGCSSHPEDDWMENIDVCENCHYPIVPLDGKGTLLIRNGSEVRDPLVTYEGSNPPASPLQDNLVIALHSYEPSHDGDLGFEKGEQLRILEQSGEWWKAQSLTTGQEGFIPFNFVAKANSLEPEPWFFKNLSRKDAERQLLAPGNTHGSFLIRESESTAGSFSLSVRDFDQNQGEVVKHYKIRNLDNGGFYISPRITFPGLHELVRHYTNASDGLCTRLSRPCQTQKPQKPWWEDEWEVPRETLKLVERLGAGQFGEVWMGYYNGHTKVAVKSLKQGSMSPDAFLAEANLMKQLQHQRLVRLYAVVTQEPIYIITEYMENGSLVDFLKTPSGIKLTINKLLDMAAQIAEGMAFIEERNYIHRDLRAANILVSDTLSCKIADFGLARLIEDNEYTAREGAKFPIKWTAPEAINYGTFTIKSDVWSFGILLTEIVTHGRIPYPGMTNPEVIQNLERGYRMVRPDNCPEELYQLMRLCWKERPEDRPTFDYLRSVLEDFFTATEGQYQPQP

Kappa-type opioid receptor, sequence (P41145 whole entry): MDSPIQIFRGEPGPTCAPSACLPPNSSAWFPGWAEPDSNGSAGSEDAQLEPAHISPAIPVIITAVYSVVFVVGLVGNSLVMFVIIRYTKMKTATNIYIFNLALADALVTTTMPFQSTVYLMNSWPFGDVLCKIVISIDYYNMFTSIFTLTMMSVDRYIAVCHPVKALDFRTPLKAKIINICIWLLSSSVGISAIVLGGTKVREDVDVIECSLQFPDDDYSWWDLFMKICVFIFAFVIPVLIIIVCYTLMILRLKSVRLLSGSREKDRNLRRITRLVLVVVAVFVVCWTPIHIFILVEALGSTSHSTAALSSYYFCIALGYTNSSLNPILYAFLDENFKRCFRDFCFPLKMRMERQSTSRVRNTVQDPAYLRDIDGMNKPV
Tyrosine-protein kinase Fyn, sequence (P06241 whole entry): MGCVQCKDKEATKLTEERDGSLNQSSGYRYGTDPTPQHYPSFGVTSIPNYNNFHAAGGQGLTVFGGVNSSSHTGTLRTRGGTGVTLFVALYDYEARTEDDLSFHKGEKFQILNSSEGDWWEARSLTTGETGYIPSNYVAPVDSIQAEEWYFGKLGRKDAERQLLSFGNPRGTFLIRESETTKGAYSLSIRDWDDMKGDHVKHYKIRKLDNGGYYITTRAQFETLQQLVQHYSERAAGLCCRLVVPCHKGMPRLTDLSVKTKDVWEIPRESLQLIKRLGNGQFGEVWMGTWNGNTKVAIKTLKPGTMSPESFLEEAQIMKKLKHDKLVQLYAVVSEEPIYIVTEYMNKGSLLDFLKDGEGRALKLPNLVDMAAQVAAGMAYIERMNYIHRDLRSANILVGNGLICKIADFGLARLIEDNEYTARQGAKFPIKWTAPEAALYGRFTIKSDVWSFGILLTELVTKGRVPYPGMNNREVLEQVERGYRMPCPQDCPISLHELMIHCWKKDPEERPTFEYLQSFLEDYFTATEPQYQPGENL

Compound	IC50 [1]	Ki [1]	IC50 ([2]; cho-k1)	IC50 [3]	IC50 [4]	Ki [4]	IC50 ([5]; insect cells)	IC50 ([6]; insect cells)	pIC50 [2]	pKi [2]	pIC50 [5]	pKi [3]	pIC50 ([3]; read-out: IC50)	Ki ([2]; cho-k1)	Ki ([5]; insect cells)	Ki ([6]; insect cells)	pIC50 ([6]; read-out: IC50)
CC1(C)O[C@@H]2C[C@H]3[C@@H]4CCC5=CC(=O)C=C[C@]5(C)[C@@]4(F)[C@@H](O)C[C@]3(C)[C@]2(C(=O)CO)O1 [TRIAMCINOLONE ACETONIDE]	Not Active	Not Active	Not Active	Not Active	Not Active	Not Active	Not Active	Not Active	–	–	–	–	–	–	–	–	–
N#CC(C#N)=Cc1ccc(O)c(O)c1 [TYRPHOSTIN 23]	Not Active	Not Active	Not Active	Not Active	Not Active	Not Active	Not Active	Not Active	–	–	–	–	–	–	–	–	–
Nc1nc2nc[nH]c2c(=S)[nH]1 [THIOGUANINE]	Not Active	Not Active	Not Active	Not Active	Not Active	Not Active	Not Active	Not Active	–	–	–	–	–	–	–	–	–
NS(=O)(=O)c1cc2c(cc1Cl)NC(C(Cl)Cl)NS2(=O)=O (stereo not given) [TRICHLORMETHIAZIDE]	Not Active	Not Active	Not Active	Not Active	Not Active	Not Active	Not Active	Not Active	–	–	–	–	–	–	–	–	–
CC(C)N1CCN(c2ccc(OCC3COC(Cn4cncn4)(c4ccc(Cl)cc4Cl)O3)cc2)CC1 (stereo not given) [TERCONAZOLE]	Not Active	Not Active	–	Not Active	Not Active	Not Active	–	Not Active	4.86	5.72	4.96	–	–	–	–	–	–
CN1CCN(CCCN2c3ccccc3Sc3ccc(Cl)cc32)CC1 [PROCHLORPERAZINE]	–	–	–	Not Active	–	–	–	Not Active	5.87	6.72	5.25	–	–	–	–	–	–
CC(C)(C)NC(=O)[C@@H]1C[C@@H]2CCCC[C@@H]2CN1C[C@@H](O)[C@H](Cc1ccccc1)NC(=O)[C@H](CC(N)=O)NC(=O)c1ccc2ccccc2n1	Not Active	Not Active	Not Active	–	Not Active	Not Active	Not Active	Not Active	–	–	–	5.56	5.16	–	–	–	–
SODIUM NITROPRUSSIDE	Not Active	Not Active	Not Active	–	Not Active	Not Active	Not Active	Not Active	–	–	–	–	–	Not Active	Not Active	Not Active	–
NC[C@H]1CC[C@H](C(=O)O)CC1 [TRANEXAMIC ACID]	Not Active	Not Active	Not Active	Not Active	Not Active	Not Active	Not Active	Not Active	–	–	–	–	–	–	–	–	–
CC/C(=C(\c1ccccc1)c1ccc(OCCN(C)C)cc1)c1ccccc1 [TAMOXIFEN]	–	–	–	–	–	–	–	–	5.32	6.17	5.92	5.20	–	–	–	–	5.10
N[C@@H]1[C@H]2CN(c3nc4c(cc3F)c(=O)c(C(=O)O)cn4-c3ccc(F)cc3F)C[C@@H]12 [TROVAFLOXACIN]	Not Active	Not Active	Not Active	Not Active	Not Active	Not Active	Not Active	–	–	–	–	–	–	–	–	–	–
CC[C@@H](CO)NC(=O)[C@@H]1C=C2c3cccc4[nH]cc(c34)C[C@H]2N(C)C1 [METHYLERGONOVINE]	Not Active	Not Active	Not Active	–	Not Active	Not Active	Not Active	Not Active	–	–	–	–	–	–	–	–	–
Cc1cccc(N(C)C(=S)Oc2ccc3ccccc3c2)c1 [TOLNAFTATE]	Not Active	Not Active	Not Active	Not Active	Not Active	Not Active	Not Active	Not Active	–	–	–	–	–	–	–	–	–
Cc1oncc1C(=O)Nc1ccc(C(F)(F)F)cc1 [LEFLUNOMIDE]	Not Active	Not Active	Not Active	Not Active	Not Active	Not Active	Not Active	Not Active	–	–	–	–	–	–	–	–	–
Nc1nc2ccc(OC(F)(F)F)cc2s1 [RILUZOLE]	Not Active	Not Active	Not Active	Not Active	Not Active	Not Active	Not Active	Not Active	–	–	–	–	–	–	–	–	–
Cc1nc2n(c(=O)c1CCN1CCC(c3noc4cc(F)ccc34)CC1)CCCC2 [RISPERIDONE]	–	–	Not Active	Not Active	–	–	Not Active	Not Active	–	–	–	–	–	–	–	–	–
